Results taken from the RepoRT retention time repository (doi:10.1016/j.foodchem.2018.09.045).

Test: RP, Thermo Scientific Syncronis C18, 100 × 2.1 mm, 1.7 µm, 0.3 mL/min, estimated dead time 0.73 min; A: water + 0.1% acetic acid; B: acetonitrile + 0.1% acetic acid; gradient (min/%B) 0/5 1/5 16/95
Details: stereoisomer not certain

| LC retention time [min] | SMILES |
| --- | --- |
| 12.2 | COc1ccc(-c2cc(=O)c3c(O)cc(O)cc3o2)cc1 |
| 9.7 | O=c1c(O)c(-c2ccc(O)cc2)oc2cc(O)cc(O)c12 |
| 8.24 | O=c1c(O)c(-c2ccc(O)c(O)c2)oc2cc(O)cc(O)c12 |
| 9.87 | COc1cc(-c2oc3cc(O)cc(O)c3c(=O)c2O)ccc1O |
| 7.04 | COc1cc(C=CC(=O)O)ccc1O |
| 9.94 | COc1cc(-c2cc(=O)c3c(O)cc(O)cc3o2)ccc1O |
| 7.02 | COc1cc(C=CC(=O)O)cc(OC)c1O |
| 7.17 | CC1OC(Oc2c(-c3ccc(O)c(O)c3)oc3cc(O)cc(O)c3c2=O)C(O)C(O)C1O (stereo unspecified) |
| 7.9 | COc1cc(C=CC=O)ccc1O |
| 11.8 | O=c1c(O)c(-c2ccccc2)oc2cc(O)cc(O)c12 |
| 5.63 | COc1cc(C(=O)O)ccc1O |
| 4.44 | O=C(O)c1ccc(O)c(O)c1 |
| 6.44 | CC1OC(OCC2OC(Oc3c(-c4ccc(O)c(O)c4)oc4cc(O)cc(O)c4c3=O)C(O)C(O)C2O)C(O)C(O)C1O (stereo unspecified) |
| 5.62 | O=C(O)Cc1ccc(O)cc1 |
| 11.7 | O=C1CC(c2ccccc2)Oc2cc(O)cc(O)c21 (stereo unspecified) |
| 11.8 | COc1ccc(-c2oc3cc(O)cc(O)c3c(=O)c2O)cc1 |
| 7.03 | CC1OC(OC2C(Oc3cc(O)c4c(c3)OC(c3ccc(O)cc3)CC4=O)OC(CO)C(O)C2O)C(O)C(O)C1O (stereo unspecified) |
| 6.71 | O=c1c(OC2OC(CO)C(O)C(O)C2O)c(-c2ccc(O)c(O)c2)oc2cc(O)cc(O)c12 (stereo unspecified) |
| 9.74 | O=C1c2c(O)cc(O)cc2OC(c2ccccc2)C1O (stereo unspecified) |
| 9.52 | O=c1cc(-c2ccc(O)cc2)oc2cc(O)cc(O)c12 |
| 6.68 | O=C(O)C=Cc1ccc(O)cc1 |
| 9.44 | O=C1CC(c2ccc(O)cc2)Oc2cc(O)cc(O)c21 (stereo unspecified) |
| 8.59 | O=C1CC(c2ccc(O)c(O)c2)Oc2cc(O)cc(O)c21 (stereo unspecified) |
| 11.6 | O=c1cc(-c2ccccc2)oc2cc(O)cc(O)c12 |
| 5.26 | O=C(C=Cc1ccc(O)c(O)c1)OC1CC(O)(C(=O)O)CC(O)C1O (stereo unspecified) |
| 5.48 | O=C(O)c1cc(O)ccc1O |
| 5.41 | O=C(O)c1ccc(O)cc1 |
| 10.8 | COc1cc(O)c2c(=O)cc(-c3ccc(O)cc3)oc2c1 |
| 9.53 | O=c1c(-c2ccc(O)cc2)coc2cc(O)cc(O)c12 |
| 8.69 | O=c1cc(-c2ccc(O)c(O)c2)oc2cc(O)cc(O)c12 |

| SMILES | LC retention time [min] |
| --- | --- |
| O=c1ccc2cc(OC3OC(CO)C(O)C(O)C3O)c(O)cc2o1 (stereo unspecified) | 4.91 |
